Test results taken from article PMC9676923, “Characterization of relaxin 3 and its receptors in chicken: Evidence for relaxin 3 acting as a novel pituitary hormone” (Frontiers in Physiology, 2022).

Key:
[1] = system: HEK293 cells transfected with an empty pcDNA3.1 (+) vector; experiment: Luciferase reporter control, HEK293 cells transfected with empty pcDNA3.1 (+) vector; format: cell-based; conditions: rhRLN3 10^-12 to 10^-7 M, 6 h; pGL3-CRE and pGL3-NFAT-RE reporters; N = 3
Description: According to our previously established methods ([Liu et al., 2019]; [Jiang et al., 2022]), two cell-based luciferase reporter systems (pGL3-CRE-luciferase and pGL3-NFAT-RE-luciferase) were used to verify whether cRLN3cm is biologically active and capable of activating cRXFP1 and cRXFP3. […] HEK293 cells expressing empty pcDNA3.1 (+) were used as a negative control.
To explore whether pituitary cells can secrete RLN3, we collected the extracellular medium of adult female chicken pituitary cells to detect its activation potential. According to the method provided in the previous article ([Sun et al., 2021]; [Liu et al., 2022]), the anterior pituitaries from a laying hen were isolated and further cut into small pieces with clean scissors. After washing with PBS, the cut pieces were then digested with 0.25% trypsin at 37°C for 30 min. The dispersed pituitary cells were cultured in Medium 199 supplemented with 10% fetal bovine serum in a Corning Cell BIND 48-well plate (Corning, Tewksbury, MA) at 37°C with 5% CO2. […] The HEK293 cells expressing cRXFP1 were treated with a 60 μl serum-free medium containing chicken pituitary cell extracellular medium (2 × 10^−3μl to 2 × 10^1 μl) for 6 h, and then receptor-activated calcium mobilization was monitored by pGL3-NFAT-RE-luciferase reporter systems. […]

cRXFP1 [2] = experiment: pGL3-CRE-luciferase reporter (cAMP/PKA), HEK293 cells expressing cRXFP1; format: cell-based, chicken
Method: (§1) According to our previously established methods ([Liu et al., 2019]; [Jiang et al., 2022]), two cell-based luciferase reporter systems (pGL3-CRE-luciferase and pGL3-NFAT-RE-luciferase) were used to verify whether cRLN3cm is biologically active and capable of activating cRXFP1 and cRXFP3. In brief, HEK293 cells transiently expressing each receptor (cRXFP1 and cRXFP3) were treated with 30 μl serum-free medium containing cRLN3cm or pcDNAcm (0.001–10 μl) for 6 h, and the receptor-activated cAMP/PKA pathways and calcium mobilization were then monitored by pGL3-CRE-luciferase and pGL3-NFAT-RE-luciferase reporter systems, respectively. HEK293 cells expressing empty pcDNA3.1 (+) were used as a negative control.
(§2) To compare the functional difference between chicken RLN3 and human RLN3, recombinant human RLN3 (rhRLN3, 10^–12 to 10^–7 M, 6 h) was used to treat HEK293 cells expressing cRXFP1 or cRXFP3, respectively, and its potency in activating cRXFP1 and cRXFP3 was also evaluated.
(§3) To verify whether chicken RLN3 can activate RXFP1 or RXFP3, a cRLN3-conditioned medium (cRLN3cm, 0.001–10 μl) was used to treat HEK293 cells expressing cRXFP1/cRXFP3. Receptor activation was examined by pGL3-CRE-luciferase and pGL3-NFAT-RE-luciferase reporter systems established in our previous studies ([Liu et al., 2019]).

cRXFP3 [3] = experiment: pGL3-CRE-luciferase reporter, inhibition of forskolin-stimulated luciferase activity, HEK293 cells expressing cRXFP3; format: cell-based, chicken; conditions: rhRLN3 10^-12 to 10^-7 M, 6 h, HEK293 cells transiently expressing cRXFP3, N = 3, read-out: EC50, cAMP/PKA, cRXFP3 (inhibition of forskolin-stimulated luciferase activity)
Method: as §1, §2, §3

cRXFP3 [4] = experiment: pGL3-NFAT-RE-luciferase reporter (calcium mobilization), HEK293 cells expressing cRXFP3; format: cell-based, chicken; conditions: rhRLN3 10^-12 to 10^-7 M, 6 h, N = 3
Method: as §1, §2, §3

cRXFP1 [5] = experiment: pGL3-NFAT-RE-luciferase reporter (calcium mobilization), HEK293 cells expressing cRXFP1; format: cell-based, chicken; conditions: rhRLN3 10^-12 to 10^-7 M, 6 h, HEK293 cells transiently expressing cRXFP1, N = 3, read-out: EC50, Ca^2+, cRXFP1
Method: as §1, §2, §3

EC50 (cRXFP1 [2]; rhRLN3 10^-12 to 10^-7 M, 6 h, HEK293 cells transiently expressing cRXFP1, mean of three replicates (N = 3)): 2.68 nM
EC50 (cRXFP3 [3]): 41.5 nM
EC50 (cRXFP1 [5]): 21.1 nM
Substance: recombinant human relaxin 3 [rhRLN3]
change of luciferase activity in empty-vector cells [1]: did not change the luciferase activity
potency on cRXFP1 compared with cRXFP3 (in words) (cRXFP1 [2]; HEK293 cells expressing cRXFP1 or cRXFP3): higher potency for cRXFP1 activation
stimulation of luciferase activity (Ca^2+), cRXFP3 (cRXFP3 [4]): not cRXFP3
